Among the data in publication PMC6237158, “HPLC–UV assay for the evaluation of inhibitors of plasma amine oxidase using crude bovine plasma” (Journal of Enzyme Inhibition and Medicinal Chemistry, 2018) are IC50 values, retold here.

What is called IC50 is the concentration that gives 50% inhibition.

In one test the target is T1, PAO in bovine plasma (Bos taurus, UniProt Q29437).
T1 construct: crude bovine plasma can be used as enzyme source in this assay instead of the purified enzyme; tissue Coesfelder Fleischhandelsgesellschaft, Bernd Grewe (Coesfeld, Germany); host or cells: heparinised bovine blood plasma
T1 sequence (Q29437 17-762): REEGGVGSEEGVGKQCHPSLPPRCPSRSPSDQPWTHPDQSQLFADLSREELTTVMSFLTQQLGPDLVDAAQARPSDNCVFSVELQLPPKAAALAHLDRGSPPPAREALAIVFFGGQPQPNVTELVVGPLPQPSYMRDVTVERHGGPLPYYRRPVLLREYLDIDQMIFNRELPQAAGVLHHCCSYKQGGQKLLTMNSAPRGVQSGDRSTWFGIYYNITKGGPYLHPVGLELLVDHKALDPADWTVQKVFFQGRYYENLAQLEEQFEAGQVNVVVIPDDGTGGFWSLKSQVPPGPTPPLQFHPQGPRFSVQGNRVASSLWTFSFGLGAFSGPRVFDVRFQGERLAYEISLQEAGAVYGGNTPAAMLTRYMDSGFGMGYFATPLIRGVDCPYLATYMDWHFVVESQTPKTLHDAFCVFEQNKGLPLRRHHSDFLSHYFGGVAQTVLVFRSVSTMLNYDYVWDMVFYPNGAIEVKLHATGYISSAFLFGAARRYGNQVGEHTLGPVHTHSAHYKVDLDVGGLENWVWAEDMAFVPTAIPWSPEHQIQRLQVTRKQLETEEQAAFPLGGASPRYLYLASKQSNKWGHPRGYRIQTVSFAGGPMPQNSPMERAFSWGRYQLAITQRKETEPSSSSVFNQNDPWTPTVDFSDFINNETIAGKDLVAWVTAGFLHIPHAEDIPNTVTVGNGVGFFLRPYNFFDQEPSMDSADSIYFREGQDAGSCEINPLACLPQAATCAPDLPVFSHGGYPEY
Put plainly: Inhibitor screening with pre-incubation of bovine plasma with the inhibitor (HPLC-UV). Particulars: with pre-incubation of enzyme and inhibitor (15 min, 37 °C), n = 3. The format is biochemical. The protocol:
General procedure for inhibitor screening with pre-incubation of bovine plasma with the inhibitor. To a DMSO solution of the appropriate inhibitor (concentration variable) (2.5 µL) was added a dilution of bovine plasma in PBS (95 µL), prepared by mixing 89 volume parts of PBS with 6 volume parts of bovine plasma. The resulting mixture was pre-incubated at 37 °C for 15 min. Then the incubation was started at 37 °C by addition of a solution of the substrate 4 (10 mM) in DMSO (2.5 µL). After 45 min, the enzyme reaction was terminated by the addition of acetonitrile (100 µL). The samples were further treated and analysed as described above in the inhibition experiments done without pre-incubation. Controls (n = 3) and a blank were prepared analogously. The experiments using benzylamine (7) as substrate were carried out in the same way with the modifications that aliquots (150 µL) of the supernatants obtained after addition of acetonitrile and centrifugation were diluted with water (150 µL), and acetonitrile/aqueous ammonium acetate solution (10 mM, pH 6) (45:55, v/v) was used as eluent at a detection wavelength of 250 nm.

Another test concerns the target T2, purified PAO (Bos taurus, UniProt Q29437).
T2 construct: we used the enzyme isolated and purified from bovine plasma; host or cells: bovine plasma
T2 sequence (Q29437 17-762): T1 sequence (Q29437 17-762)
On the set-up: method as in PMID 29550344. Particulars: after pre-incubation 15 min, read-out: IC50, purified enzyme, cited from earlier work.

The target of another test is T3, purified bovine PAO (Bos taurus, UniProt Q29437).
T3 construct: bovine PAO purified from bovine plasma; purchased Abnova, Taipei, Taiwan delivered via Biozol, Eching, Germany; host or cells: bovine plasma
T3 sequence (Q29437 17-762): T1 sequence (Q29437 17-762)
Put plainly: Inhibition of purified bovine PAO without pre-incubation (HPLC-UV). The format is biochemical. Particulars: substrate 3-(5-phenyl-2H-tetrazol-2-yl)propan-1-amine (1), n = 3. The protocol:
Determination of the IC50-values of the PAO inhibitor 2-(4-phenylphenyl)acetohydrazide (16) with bovine plasma using different substrates. The IC50-values were measured as described previously (without pre-incubation),[33] with the modification that the solution of the isolated PAO in PBS (0.19 mg/mL) (95 µL) was replaced by PBS (89 µL) and bovine plasma (6 µL).
To evaluate the comparability of inhibition data obtained with the purified enzyme and the crude plasma, we measured the inhibition values of the known PAO inhibitor 2-(4-phenylphenyl)acetohydrazide (16) (for formula see Table 3) using the different amine substrates 1–7. In these experiments, the enzyme was added to a solution containing both substrate and inhibitor. Thus, no pre-incubation of enzyme with the inhibitor took place. […] This may be due to the binding of the inhibitor to plasma proteins leading to a somewhat reduced effective concentration. In addition, consistent differences in the apparent inhibitory potency of the inhibitor 16 in dependence of the substrate applied could be registered for both enzyme preparations. The reason for these fluctuating values lies in strongly different binding affinities of the substrates to the enzyme as discussed recently. […]

Where two headings read alike, the source gives them in different places.

On to `NNC(=O)Cc1ccc(-c2ccccc2)cc1` [Compound 16, 2-(4-phenylphenyl)acetohydrazide], for which the concentration for half-maximal inhibition (IC50) is 0.13 ± 0.03 µM at PAO in bovine plasma (substrate benzylamine); 0.23 ± 0.04 µM against PAO in bovine plasma (substrate hexan-1-amine 4); 0.29 µM at purified PAO (substrate 4); 0.11 µM at purified PAO (substrate benzylamine); 53 ± 3 µM on purified bovine PAO.
